Data set [1] can be described thus: Normalized urine compliance marker (diazepam) concentration in patients, FPIA, normalized to urine SG 1.030 and 154 lbs body weight. The following applies: diazepam 2 mg p.o. q12h.
Data set [2] can be described thus: Renal excretion rates as a function of urine volume production rate. Format: in vivo, human. How it is done: This constancy has now been experimentally verified by examining the renal excretion rates of methadone, benzodiazepines, other drugs and creatinine and other endogenous metabolites as a function of urine volume production rate. For example, sequential, complete and timed (1-8 hours holding periods) aliquots of urine for 12 compliant control subjects were collected over 24 to 72 hour periods. For each urine aliquot, urine volume production rate (ml/min), specific gravity and creatinine concentration (mg/dl) (as the tested substance) were determined.

The structures appear in SMILES notation.

For the compound `CN1C(=O)CN=C(c2ccccc2)c2cc(Cl)ccc21` [diazepam], the “MEAN NU FOR […]” value is listed as 500 (SD 90, CV 18%) in data set [1] (Experiment #1, patient P-1, methadone 30 mg p.o. q12h) and 499 (SD 73, CV 15%) in data set [1] (Experiment #1, patient P-3, methadone 30 mg p.o. q12h). In the case of `CCC(=O)C(CC(C)N(C)C)(c1ccccc1)c1ccccc1` (stereo not drawn) [methadone], the “renal excretion rates during a typical day” value in data set [2] is “relatively constant”.
